Source: publication PMC8196580, “Identification of Kaurane-Type Diterpenes as Inhibitors of Leishmania Pteridine Reductase I” (Molecules, 2021)
Read-outs that look alike come from different tables or passages of the source.

Key:
L. major [1] = experiment: ChEMBL dataset of pIC50 values against L. major used for the RF model (Table S1); type: cell-based, Leishmania major; also: call rule not given here
L. major [2] = test system: L. major; design: method as in ChEMBL; details: ref ChEMBL, cited from earlier work
[3] = Active/Inactive class assigned to ChemBL structures for Random forest model construction (Table S1)
[4] = ChemBL structures with pIC50 values used for Random forest model construction (Table S1)
[5] = Active/Inactive class assigned to the ChEMBL pIC50 value for Random forest model construction, ref ChEMBL
[6] = ChemBL structures with pIC50 values used for Random forest model construction, L. major

Compound | Outcome (L. major [1]; [3]) | pIC50 Value (L. major [2]; [4]) | Outcome (L. major [1]; [5]) | pIC50 Value (L. major [2]; [6])
C/C=C/C=C/c1nc2cccc(OC)c2n2cccc12 [CHEMBL3260209] | Active | 5.48 | – | –
CCC/C=C/C=C/c1nc2ccccc2n2cccc12 [CHEMBL3260210] | Active | 5.41 | – | –
CCC/C=C/C=C/c1nc2cc(OC)ccc2n2cccc12 [CHEMBL3260211] | Active | 5.55 | – | –
CCC/C=C/C=C/c1nc2ccc(OC)cc2n2cccc12 [CHEMBL3260212] | – | – | Active | 5.13
CCC/C=C/C=C/c1nc2cccc(OC)c2n2cccc12 [CHEMBL3260213] | Active | 5.41 | – | –
CCCC/C=C/C=C/c1nc2ccccc2n2cccc12 [CHEMBL3260214] | Active | 5.43 | – | –
CCCC/C=C/C=C/c1nc2cc(OC)ccc2n2cccc12 [CHEMBL3260215] | Active | 5.60 | – | –
CCCC/C=C/C=C/c1nc2ccc(OC)cc2n2cccc12 [CHEMBL3260216] | Active | 5.36 | – | –
CCCC/C=C/C=C/c1nc2cccc(OC)c2n2cccc12 [CHEMBL3260217] | – | – | Active | 5.24
C/C=C/C=C/C=C/c1nc2ccccc2n2cccc12 [CHEMBL3260218] | Active | 5.92 | – | –
C/C=C/C=C/c1nc2ccccc2n2ccc(OCC)c12 [CHEMBL3260219] | Active | 5.82 | – | –
Cc1cccc2nc(-c3ccc(C(=O)N/N=C/c4cccc(O)c4O)cc3)[nH]c12 [CHEMBL3317782] | – | – | Inactive | 4.42
COc1ccc2c(c1)C=C(C(=O)/C=C/c1ccc(Cl)c(Cl)c1)CO2 [CHEMBL3329269] | Active | 6.00 | – | –
COc1ccc2c(c1)C=C(/C=C/C(=O)c1ccc(Cl)c(Cl)c1)CO2 [CHEMBL3329270] | Active | 6.00 | – | –
CC(C)C1=CC(=O)C2=C(CC[C@H]3C(C)(C)CCC[C@]23C)C1=O [CHEMBL3355361] | Active | 6.74 | – | –
CC[C@H](CO)Nc1nc(NCc2cccc(C)c2O)c2ncn(C(C)C)c2n1 [CHEMBL3423079] | – | – | Inactive | 4.70
CC[C@H](CO)Nc1nc(NCc2cc(C)ccc2O)c2ncn(C(C)C)c2n1 [CHEMBL3423080] | Active | 5.64 | – | –
CC[C@H](CO)Nc1nc(NCc2ccc(Br)cc2)c2ncn(C(C)C)c2n1 [CHEMBL3423090] | – | – | Inactive | 4.71
CCN(CC)NC(=O)c1ccc(OCc2ccccc2)cc1 [CHEMBL3613383] | – | – | Inactive | 4.68
c1ccc(-c2nc3cnccn3c2-c2ccccc2)cc1 [CHEMBL3634350] | – | – | Inactive | 4.58
COc1ccc(-c2c(-c3ccccc3)nc3cnccn23)cc1 [CHEMBL3634351] | – | – | Inactive | 4.76
O=[N+]([O-])c1ccc(-c2c(-c3ccccc3)nc3cnccn23)cc1 [CHEMBL3634352] | – | – | Inactive | 4.56
CCOC(=O)c1ccc(-c2c(-c3ccccc3)nc3cnccn23)cc1 [CHEMBL3634353] | – | – | Inactive | 4.76

Compound | Outcome (L. major [1]; [3]) | pIC50 Value (L. major [2]; [4]) | Outcome (L. major [1]; [5]) | pIC50 Value (L. major [2]; [6])
Clc1cccc(-c2c(-c3ccccc3)nc3cnccn23)c1 [CHEMBL3634354] | – | – | Inactive | 4.84
Clc1cc(Cl)cc(-c2c(-c3ccccc3)nc3cnccn23)c1 [CHEMBL3634355] | – | – | Inactive | 4.99
c1ccc(-c2nc3cnccn3c2-c2ccncc2)cc1 [CHEMBL3634356] | – | – | Inactive | 4.70
CN(C)CCNc1nccn2c(I)c(-c3ccccc3)nc12 [CHEMBL3634357] | – | – | Inactive | 4.62
CN(C)c1nccn2c(I)c(-c3ccccc3)nc12 [CHEMBL3634358] | – | – | Active | 5.17
Ic1c(-c2ccccc2)nc2c(NCCN3CCOCC3)nccn12 [CHEMBL3634359] | – | – | Inactive | 4.97
CN(C)CCNc1nccn2c(I)c(-c3ccc(F)cc3)nc12 [CHEMBL3634360] | – | – | Inactive | 4.61
CN(C)c1nccn2c(I)c(-c3ccc(F)cc3)nc12 [CHEMBL3634361] | – | – | Inactive | 4.00
Fc1ccc(-c2nc3c(NCCN4CCOCC4)nccn3c2I)cc1 [CHEMBL3634362] | Active | 5.55 | – | –
CN(C)CCNc1nccn2c(-c3ccncc3)c(-c3ccccc3)nc12 [CHEMBL3634363] | – | – | Inactive | 4.16
CN(C)c1nccn2c(-c3ccncc3)c(-c3ccccc3)nc12 [CHEMBL3634364] | – | – | Inactive | 4.50
c1ccc(-c2nc3c(NCCN4CCOCC4)nccn3c2-c2ccncc2)cc1 [CHEMBL3634365] | – | – | Inactive | 4.63
CN(C)CCNc1nccn2c(-c3ccncc3)c(-c3ccc(F)cc3)nc12 [CHEMBL3634366] | – | – | Inactive | 4.45
CN(C)c1nccn2c(-c3ccncc3)c(-c3ccc(F)cc3)nc12 [CHEMBL3634367] | – | – | Active | 5.19
Fc1ccc(-c2nc3c(NCCN4CCOCC4)nccn3c2-c2ccncc2)cc1 [CHEMBL3634368] | – | – | Inactive | 4.78
Nc1ccc2ncnc(Nc3ccc(OCc4cccc(F)c4)c(Cl)c3)c2c1 [CHEMBL3637893] | – | – | Inactive | 4.98
O=C(CN1CCOCC1)Nc1ccc2ncnc(Nc3ccc(OCc4cccc(F)c4)c(Cl)c3)c2c1 [CHEMBL3637894] | – | – | Inactive | 4.91
CN1CCN(S(=O)(=O)c2ccc(-c3ccc4c(Nc5ncc(Cl)cn5)ccnc4c3)cc2)CC1 [CHEMBL3637895] | – | – | Active | 5.07
COc1cc(OC)c2c(C)[n+](-c3ccccc3)c(C)cc2c1.[O-][Cl+3]([O-])([O-])[O-] [CHEMBL3706858] | – | – | Inactive | 4.58
COc1cc(OC)c2c(C)[n+](-c3ccccc3)c(C)cc2c1.[Cl-] [CHEMBL3706859] | – | – | Inactive | 4.33
C=C[C@H]1CN2CCc3c([nH]c4ccccc34)[C@@H]2C[C@@H]1C(/C=C/OC)C(=O)OC (stereo partly shown) [CHEMBL3752140] | Active | 5.52 | – | –
Cc1ccc(Nc2ncnc3ccc([N+](=O)[O-])cc23)cc1C [CHEMBL3758240] | – | – | Inactive | 4.45
O=C(CCl)N1c2ccccc2Oc2ccc(Cl)cc21 [CHEMBL3758242] | – | – | Active | 5.12

Compound | Outcome (L. major [1]; [3]) | pIC50 Value (L. major [2]; [4]) | Outcome (L. major [1]; [5]) | pIC50 Value (L. major [2]; [6])
O=C(C(Cl)CCl)N1c2ccccc2Oc2ccccc21 (stereo not shown) [CHEMBL3758248] | – | – | Active | 5.02
O=C(CCl)N1c2ccccc2C=Cc2ccccc21 [CHEMBL3758271] | – | – | Inactive | 4.32
COc1ccccc1Nc1ncnc2ccc([N+](=O)[O-])cc12 [CHEMBL3758369] | Active | 5.36 | – | –
O=C(CCl)N1c2ccccc2COc2ccc(Cl)cc21 [CHEMBL3758404] | – | – | Active | 5.14
Cc1ccc(Cl)cc1Nc1ncnc2ccc([N+](=O)[O-])cc12 [CHEMBL3758550] | – | – | Inactive | 4.35
COc1ccc(OC)c(Nc2ncnc3ccc([N+](=O)[O-])cc23)c1 [CHEMBL3758611] | – | – | Inactive | 4.91
O=[N+]([O-])c1ccc2ncnc(Nc3ccccc3Cl)c2c1 [CHEMBL3758623] | – | – | Active | 5.19
N#CCC(=O)N1c2ccccc2Oc2ccccc21 [CHEMBL3758694] | – | – | Inactive | 4.00
CSc1ccc(Nc2ncnc3ccc([N+](=O)[O-])cc23)cc1 [CHEMBL3758748] | Active | 5.73 | – | –
O=C(CCCl)N1c2ccccc2Oc2ccc(Cl)cc21 [CHEMBL3759105] | – | – | Inactive | 4.80
O=C(CCl)N1c2cc(Cl)ccc2Oc2ccc(Cl)cc21 [CHEMBL3759123] | – | – | Active | 5.02
Cc1ccc(Nc2ncnc3ccc([N+](=O)[O-])cc23)cc1 [CHEMBL3759143] | – | – | Inactive | 4.62
O=C(CBr)N1c2ccccc2Oc2ccc(Cl)cc21 [CHEMBL3759174] | – | – | Inactive | 4.00
O=C(CCCCl)N1c2ccccc2Oc2ccc(Cl)cc21 [CHEMBL3759213] | – | – | Inactive | 4.00
O=C(CCl)N1c2ccccc2Oc2ccc(C(F)(F)F)cc21 [CHEMBL3759243] | – | – | Active | 5.02
O=C(C(Cl)Cl)N1c2ccccc2Oc2ccccc21 [CHEMBL3759299] | – | – | Inactive | 4.09
ClCCN1c2ccccc2Oc2ccc(Cl)cc21 [CHEMBL3759618] | – | – | Inactive | 4.00
O=C(CCl)Nc1cc(Cl)ccc1Oc1ccccc1 [CHEMBL3759632] | – | – | Inactive | 4.37
CCc1ccc(Nc2ncnc3ccc([N+](=O)[O-])cc23)cc1 [CHEMBL3759644] | – | – | Inactive | 4.42
CC(Cl)C(=O)N1c2ccccc2Oc2ccccc21 (stereo not shown) [CHEMBL3759769] | – | – | Inactive | 4.00
O=C(CCCl)N1c2ccccc2Oc2ccccc21 [CHEMBL3759988] | – | – | Inactive | 4.41
CSc1cccc(Nc2ncnc3ccc([N+](=O)[O-])cc23)c1 [CHEMBL3760067] | – | – | Inactive | 4.70
